From PubChem BioAssay (NCI)
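Five concentrations, 48 hours, 96-well plates. The concentration for 50% growth inhibition is given as GI50. TGI: total growth inhibition.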

Assays:
Assay in all cases: NCI tumour cell line growth inhibition, 48 h
HCT-116 colon = tested on: HCT-116 colon
MCF7 breast = tested on: MCF7 breast
A549 NSCLC = tested on: A549 NSCLC
RPMI-8226 leukemia = tested on: RPMI-8226 leukemia
SF-539 CNS = tested on: SF-539 CNS
HL-60(TB) leukemia = tested on: HL-60(TB) leukemia
OVCAR-4 ovarian = tested on: OVCAR-4 ovarian
K-562 leukemia = tested on: K-562 leukemia
MOLT-4 leukemia = tested on: MOLT-4 leukemia
UO-31 renal = tested on: UO-31 renal

## CCN1CCN(c2nc(C)cc(N(CCCNc3ccnc4cc(Cl)ccc34)Cc3ccco3)n2)CC1
HCT-116 colon
  GI50: 2.05 µM
  TGI: 10.9 µM
MCF7 breast
  GI50: 2.98 µM
  TGI: 14.8 µM
A549 NSCLC
  GI50: 4.51 µM
  TGI: 16.5 µM
RPMI-8226 leukemia
  GI50: 2.31 µM
  TGI: 5.77 µM
SF-539 CNS
  GI50: 1.75 µM
  TGI: 3.46 µM
HL-60(TB) leukemia
  GI50: 2.11 µM
  TGI: 5.08 µM
OVCAR-4 ovarian
  GI50: 3.99 µM
  TGI: 20.7 µM
K-562 leukemia
  GI50: 2.3 µM
  TGI: 10.4 µM
MOLT-4 leukemia
  GI50: 3.14 µM
  TGI: 16.8 µM
UO-31 renal
  GI50: 1.83 µM
  TGI: 4.3 µM

## Cc1sc2c(c1C)C(c1ccc(Cl)cc1)=N[C@@H](CC(=O)Nc1ccc(O)cc1)c1nnc(C)n1-2
HCT-116 colon
  GI50: 0.499 µM
  TGI: 17.8 µM
MCF7 breast
  GI50: 0.0553 µM
  TGI: 18.2 µM
A549 NSCLC
  GI50: 2.6 µM
  TGI: 26.8 µM
RPMI-8226 leukemia
  GI50: 0.168 µM
  TGI: 11.8 µM
SF-539 CNS
  GI50: 0.629 µM
  TGI: 19 µM
HL-60(TB) leukemia
  GI50: 0.179 µM
  TGI: 8.21 µM
OVCAR-4 ovarian
  GI50: 0.585 µM
  TGI: > 67 µM
K-562 leukemia
  GI50: 0.499 µM
  TGI: 60.3 µM
MOLT-4 leukemia
  GI50: 3.85 µM
  TGI: 54.7 µM
UO-31 renal
  GI50: 0.151 µM
  TGI: 15.4 µM

## CC(C)c1ccc(O)c(O)c(=O)c1 (tested in a mixture with another compound)
HCT-116 colon
  TGI: > 42.9 µM
MCF7 breast
  TGI: > 100 µM
A549 NSCLC
  TGI: > 100 µM
RPMI-8226 leukemia
  TGI: 9.79 µM
SF-539 CNS
  TGI: > 21.1 µM
HL-60(TB) leukemia
  TGI: 2.39 µM
OVCAR-4 ovarian
  TGI: > 100 µM
K-562 leukemia
  TGI: > 100 µM
MOLT-4 leukemia
  TGI: 5.53 µM
UO-31 renal
  TGI: > 41.2 µM

## CCCCCC/C=C\CCCCCCCCCc1c(O)c(OC)cc(O)c1CN(C)C
HCT-116 colon
  TGI: 22 µM
MCF7 breast
  TGI: 7 µM
A549 NSCLC
  TGI: 17.1 µM
RPMI-8226 leukemia
  TGI: 7.62 µM
SF-539 CNS
  TGI: 22.2 µM
HL-60(TB) leukemia
  TGI: 5.37 µM
OVCAR-4 ovarian
  TGI: 3.38 µM
K-562 leukemia
  TGI: 4.49 µM
MOLT-4 leukemia
  TGI: 4.5 µM
UO-31 renal
  TGI: 15.5 µM

## CN(C)CCN1C(=O)c2cccc3c(-c4ccc5ncn(C6CCCCC6)c5c4)ccc(c23)C1=O
HCT-116 colon
  GI50: 0.422 µM
  TGI: 10.9 µM
MCF7 breast
  GI50: 1.56 µM
  TGI: 11.1 µM
A549 NSCLC
  GI50: 1.12 µM
  TGI: 2.56 µM
RPMI-8226 leukemia
  GI50: 1.03 µM
  TGI: 6.1 µM
SF-539 CNS
  GI50: 2.19 µM
  TGI: 9.03 µM
HL-60(TB) leukemia
  GI50: 2.18 µM
  TGI: 10.5 µM
OVCAR-4 ovarian
  GI50: 2.11 µM
  TGI: 18.1 µM
K-562 leukemia
  GI50: 1.27 µM
  TGI: > 100 µM
MOLT-4 leukemia
  GI50: 0.446 µM
  TGI: 10.1 µM
UO-31 renal
  GI50: 1.06 µM
  TGI: 2.4 µM

## COc1cc2c(cc1-c1c(C)noc1C)ncc1[nH]c(=O)n([C@H](C)c3ccccn3)c12
HCT-116 colon
  GI50: 1.94 µM
  TGI: > 100 µM
MCF7 breast
  GI50: 0.195 µM
  TGI: > 100 µM
A549 NSCLC
  GI50: 6.17 µM
  TGI: > 100 µM
RPMI-8226 leukemia
  GI50: 0.124 µM
  TGI: 3.54 µM
SF-539 CNS
  GI50: 0.677 µM
  TGI: > 100 µM
HL-60(TB) leukemia
  GI50: 0.144 µM
  TGI: > 100 µM
OVCAR-4 ovarian
  GI50: 1.94 µM
  TGI: > 100 µM
K-562 leukemia
  GI50: 0.75 µM
  TGI: > 100 µM
MOLT-4 leukemia
  GI50: 4.08 µM
  TGI: 99.3 µM
UO-31 renal
  GI50: 0.119 µM
  TGI: > 57.6 µM

## c1cc(-c2cnn3nc(N4CCOCC4)ccc23)nc(NC2CC2)n1
HCT-116 colon
  GI50: 7.55 µM
  TGI: 24.6 µM
MCF7 breast
  GI50: 5.38 µM
  TGI: > 25 µM
A549 NSCLC
  GI50: 7.87 µM
  TGI: > 25 µM
RPMI-8226 leukemia
  GI50: 6.71 µM
  TGI: > 25 µM
SF-539 CNS
  GI50: 6.11 µM
  TGI: 20.4 µM
HL-60(TB) leukemia
  GI50: 7.5 µM
  TGI: 18.9 µM
OVCAR-4 ovarian
  GI50: 14.9 µM
  TGI: > 25 µM
K-562 leukemia
  GI50: > 23.6 µM
  TGI: > 25 µM
MOLT-4 leukemia
  GI50: 13.7 µM
  TGI: > 25 µM
UO-31 renal
  GI50: 7.12 µM
  TGI: > 21.4 µM

## Cc1cc(S(=O)(=O)Nc2nc3ccsc3c(=O)n2Cc2ccccc2)c(S)cc1Cl
HCT-116 colon
  GI50: 19.2 µM
  TGI: 37.7 µM
MCF7 breast
  GI50: 34.4 µM
  TGI: > 100 µM
A549 NSCLC
  GI50: 34.5 µM
  TGI: > 100 µM
RPMI-8226 leukemia
  GI50: 33.4 µM
  TGI: > 100 µM
SF-539 CNS
  GI50: 28.1 µM
  TGI: 70.3 µM
HL-60(TB) leukemia
  GI50: > 100 µM
  TGI: > 100 µM
OVCAR-4 ovarian
  GI50: 44 µM
  TGI: > 100 µM
K-562 leukemia
  GI50: 67.9 µM
  TGI: > 100 µM
MOLT-4 leukemia
  GI50: 37.9 µM
  TGI: > 100 µM
UO-31 renal
  GI50: 86 µM
  TGI: > 100 µM

## O=C(Nc1ccc([N+](=O)[O-])cc1)c1cc2ccccc2cc1O
HCT-116 colon
  GI50: 0.319 µM
  TGI: 1.32 µM
MCF7 breast
  GI50: 1.32 µM
  TGI: 11.3 µM
A549 NSCLC
  GI50: 0.454 µM
  TGI: > 21.5 µM
RPMI-8226 leukemia
  GI50: 0.291 µM
  TGI: 0.727 µM
SF-539 CNS
  GI50: 0.388 µM
  TGI: 4.94 µM
HL-60(TB) leukemia
  GI50: 0.235 µM
  TGI: 0.909 µM
OVCAR-4 ovarian
  GI50: 0.322 µM
  TGI: > 100 µM
K-562 leukemia
  GI50: 0.347 µM
  TGI: > 100 µM
MOLT-4 leukemia
  GI50: 0.675 µM
  TGI: > 21.1 µM
UO-31 renal
  GI50: 0.294 µM
  TGI: 1.15 µM

## CSc1ccc(C(=O)/C=C/c2ccc(F)cc2)cc1
HCT-116 colon
  GI50: 20.7 µM
  TGI: 36.6 µM
MCF7 breast
  GI50: 28.5 µM
  TGI: 70 µM
A549 NSCLC
  GI50: 64.4 µM
  TGI: > 100 µM
RPMI-8226 leukemia
  GI50: 22.9 µM
  TGI: 54.2 µM
SF-539 CNS
  GI50: 49.6 µM
  TGI: > 100 µM
HL-60(TB) leukemia
  GI50: 48.9 µM
  TGI: > 100 µM
OVCAR-4 ovarian
  GI50: 76.2 µM
  TGI: > 100 µM
K-562 leukemia
  GI50: 25.9 µM
  TGI: 65.3 µM
MOLT-4 leukemia
  GI50: 33.9 µM
  TGI: 94.4 µM
UO-31 renal
  GI50: > 100 µM
  TGI: > 100 µM

## Cc1cccc2cc3ccc4ccccc4c3cc12
HCT-116 colon
  TGI: > 100 µM
MCF7 breast
  TGI: 98 µM
A549 NSCLC
  TGI: > 100 µM
RPMI-8226 leukemia
  TGI: > 100 µM
SF-539 CNS
  TGI: > 100 µM
HL-60(TB) leukemia
  TGI: 52 µM
OVCAR-4 ovarian
  TGI: > 100 µM
K-562 leukemia
  TGI: > 100 µM
MOLT-4 leukemia
  TGI: 70.9 µM
UO-31 renal
  TGI: > 100 µM
